Reference: paper PMC8175350, “Drug repurposing screens identify chemical entities for the development of COVID-19 interventions” (Nature Communications, 2021)
Where “and” joins values, the source holds several entries; their conditions need not be identical. Identical values can stand only once. Counter-ions that a name gives are not always drawn. Like-named read-outs stand apart in the source and are kept apart here.

Key:
SARS-CoV-2 [1] = test: microbe, parasite or virus in culture; assay type: cell-based; conditions: for Emax: Severe acute respiratory syndrome coronavirus 2, HeLa-ACE2, 24 h, read-out: HeLa-ACE2 CoV-2 Sinf Average
[2] = Uninfected HeLa-ACE2 24 h live/dead cytotoxicity counter screen; assay type: cell-based, human; conditions: human, uninfected HeLa-ACE2 cells
HeLa-ACE2 cells [3] = test: as above; assay type: cell-based, human; conditions: curve plateau at infinite concentration
SARS-CoV-2 [4] = test: microbe, parasite or virus in culture; assay type: cell-based; conditions: for Emax: Severe acute respiratory syndrome coronavirus 2, Calu-3, 48 h, curve plateau at infinite concentration, read-out: Calu-3 CoV-2 Sinf Average
SARS-CoV-2 [5] = test: microbe, parasite or virus in culture; assay type: cell-based; conditions: for Emax: Severe acute respiratory syndrome coronavirus 2, HeLa-ACE2, 10 h, curve plateau at infinite concentration, read-out: HeLa-ACE2 TOA CoV-2 Sinf Average; for EC50: read-out: HeLa-ACE2 TOA CoV-2 EC50 GeoMean
SARS-CoV-2 [6] = assay type: cell-based; conditions: for HeLa-ACE2 synergy score with remdesivi [δ]: combination with remdesivir
HeLa-ACE2 cells [7] = test: Total cell count in the HeLa-ACE2 TOA assay; assay type: cell-based
Description: Supplement 41467_2021_23328_MOESM3_ESM.xlsx, sheet "Table S1" | column: HeLa-ACE2 TOA cell count

Calu-3 cells [8] = system: Calu-3 cells
HepG2 [9] = conditions: human, 72 h
HEK293T [10] = conditions: human, 72 h
HeLa-ACE2 cells [11] = test: cells; conditions: Homo sapiens; for EC50: HeLa-ACE2, read-out: HeLa-ACE2 cell count EC50 GeoMean
Calu-3 cells [12] = test: cells; conditions: Homo sapiens; for EC50: Calu-3, read-out: Calu-3 cell count EC50 GeoMean
in vitro [13] = conditions: human, Calu-3 uninfected cytotoxicity CC50 GeoMean
in vitro [14] = conditions: human
in vitro [15] = conditions: human; remark: listed apart in the source
SARS-CoV-2 [16] = assay type: cell-based; conditions: 72 hpi
SARS-CoV-2 [17] = test: Golden Syrian hamster SARS-CoV-2 efficacy model, body weight; assay type: in vivo; conditions: for hamster weight relative to day 0, individual animals: 500 mg/kg PO
SARS-CoV-2 [18] = test: Hamster lung viral titer by plaque assay, day 5; assay type: in vivo, Golden Syrian hamster; conditions: 500 mg/kg PO; values look like log10
[19] = Pharmacokinetic studies in Syrian hamsters, PO; assay type: in vivo; conditions: 500 mg/kg PO; for AUC(0-t): po, 500 mg/kg
Procedure: Pharmacokinetic studies were conducted at Scripps Research Institute’s Animal Models Core in accordance with IACUC guidelines (IACUC Protocol #09-0004-5). Eight-week-old male Syrian Hamsters (Charles River; three per group) were dosed PO as indicated for each compound and formulation. Plasma concentration of each test article was monitored up to 48 h. Nelfinavir was formulated in 10% DMSO/90% corn oil and MK-4482 was formulated in 10% PEG400/2.5% Cremaphor RH40 for both pharmacokinetic and efficacy studies.

[20] = ref [33]-[49], cited from earlier work
[21] = HepG2 72 h CellTiter-Glo cytotoxicity; conditions: human, HepG2 cells
HepG2 [22] = test: HepG2 72 h CellTiter-Glo cytotoxicity; conditions: 72 h
[23] = HEK293T 72 h CellTiter-Glo cytotoxicity; conditions: human, HEK293T cells
HEK293T [24] = test: HEK293T 72 h CellTiter-Glo cytotoxicity; conditions: 72 h
[25] = Uninfected Calu-3 48 h Cell-Titer Glo cytotoxicity counter screen; conditions: human, uninfected Calu-3 cells, Calu-3 Uninf. cells CC50 (µM), reconfirmed hits
Calu-3 cells [26] = test: as above; conditions: curve plateau at infinite concentration
HeLa-ACE2 cells [27] = test: Total cell count in the HeLa-ACE2 TOA (time of addition) assay; assay type: cell-based, human; conditions: Homo sapiens, HeLa-ACE2; read-out: HeLa-ACE2 TOA cell count EC50 GeoMean
[28] = curve plateau at infinite concentration
[29] = Severe acute respiratory syndrome coronavirus 2, HeLa-ACE2, detail column, read-out: HeLa-ACE2 CoV-2 EC50 GeoMean
[30] = read-out: HeLa-ACE2 uninfected cytotoxicity CC50 GeoMean
[31] = Severe acute respiratory syndrome coronavirus 2, HeLa-ACE2
[32] = male, Syrian, hamster, plasma, 10%DMSO/90% Corn Oil

COC(=O)C1=C(C)NC(C)=C(C(=O)OCCN2CCN(C(c3ccccc3)c3ccccc3)CC2)C1c1cccc([N+](=O)[O-])c1 (stereo not drawn) [Manidipine (Manyper)]
Emax (SARS-CoV-2 [1]; [28]): 100%
EC50 (SARS-CoV-2 [1]; [29]): > 6.89 µM
CC50 at 24 h [2, 30]: > 17.1 µM
HeLa-ACE2 uninfected cytotoxicity Sinf Average (HeLa-ACE2 cells [3]): -96%
Emax (SARS-CoV-2 [4]): 80%
EC50 (SARS-CoV-2 [4]; Severe acute respiratory syndrome coronavirus 2, Calu-3, detail column, read-out: Calu-3 CoV-2 EC50 GeoMean): > 5.48 µM
Emax (SARS-CoV-2 [5]): 100%
EC50 (SARS-CoV-2 [5]; [31]): 7.72 µM
HeLa-ACE2 synergy score with remdesivi [δ] (SARS-CoV-2 [6]): -4.727
EC50 (HeLa-ACE2 cells [7]; Homo sapiens, HeLa-ACE2; read-out: HeLa-ACE2 TOA cell count EC50 GeoMean): > 9.61 µM
uninfected Calu-3 CC50 (Calu-3 cells [8]): > 29.89 ×÷ 1.002 (n=5) μM
Calu-3 uninfected cytotoxicity Sinf Average (Calu-3 cells [8]; human, 48 h): -100%
HepG2 72-hour cytotoxicity Sinf Average (HepG2 [9]): -100%
HEK293T 72-hour cytotoxicty Sinf Average (HEK293T [10]): -100%
Emax (HeLa-ACE2 cells [11]; HeLa-ACE2, 24 h, read-out: HeLa-ACE2 cell count Sinf Average): 100%
EC50 (HeLa-ACE2 cells [11]): > 9.6 µM
EC50 (Calu-3 cells [12]): > 9.98 µM
CC50 at 48 h (in vitro [13]): > 29.9 µM
CC50 at 72 h (in vitro [14]): 30.7 µM
CC50 at 72 h (in vitro [15]): 30.8 µM

Cc1c(O)cccc1C(=O)N[C@@H](CSc1ccccc1)[C@H](O)CN1C[C@H]2CCCC[C@H]2C[C@H]1C(=O)NC(C)(C)C [Nelfinavir mesylate]
Emax (SARS-CoV-2 [1]; [28]): 100%
EC50 (SARS-CoV-2 [1]; Severe acute respiratory syndrome coronavirus 2, HeLa-ACE2, reconfirmed hits, read-out: HeLa-ACE2 SARS-CoV-2 EC50): > 8.64 µM
CC50 at 24 h ([2]; reconfirmed hits, read-out: HeLa-ACE2 Uninf. cells CC50): > 18 µM
CC50 at 24 h [2, 30]: > 18 µM
HeLa-ACE2 uninfected cytotoxicity Sinf Average (HeLa-ACE2 cells [3]): -100%
Emax (SARS-CoV-2 [4]): 90%
EC50 (SARS-CoV-2 [4]; Severe acute respiratory syndrome coronavirus 2, Calu-3, reconfirmed hits, read-out: Calu-3 SARS-CoV-2 EC50): 0.361 µM
Emax (SARS-CoV-2 [5]): 100%
EC50 (SARS-CoV-2 [5]; [31]): > 8.35 µM
Synergy score with remdesivir (δ) (SARS-CoV-2 [6]): −1.23
interaction with remdesivir (SARS-CoV-2 [6]; ZIP model): additive (Additive effect: -10< δ <10)
dose-response point, normalized infected cells (SARS-CoV-2 [6]; alone, Concentration [uM] -7.08145): 8.854 and 6.527 and 6.904
HeLa-ACE2 synergy score with remdesivi [δ] (SARS-CoV-2 [6]): -1.233
reduction in apical viral loads (SARS-CoV-2 [16]): > 1 log
protection from weight loss and viral replication (SARS-CoV-2 [17]; 500 mg/kg PO BID): failed to protect animals from weight loss and viral replication
hamster weight relative to day 0, individual animals (SARS-CoV-2 [17]; Day 1): 99.1786 and 96.9182 and 97.0207 and 99.8527
hamster weight relative to day 0, individual animals (SARS-CoV-2 [17]; Day 2): 97.2793 and 94.4654 and 95.1466 and 96.8581
hamster weight relative to day 0, individual animals (SARS-CoV-2 [17]; Day 3): 95.4312 and 90.7547 and 93.8011 and 92.8326
hamster weight relative to day 0, individual animals (SARS-CoV-2 [17]; Day 4): 92.4025 and 86.7925 and 92.1672 and 89.1998
hamster weight relative to day 0, individual animals (SARS-CoV-2 [17]; Day 5): 90.1951 and 82.0755 and 91.0139 and 86.6961
viral titers in lungs, individual animals (SARS-CoV-2 [18]): 9.667 and 7.176 and 8.778 and 9.217
plasma level of nelfinavir, individual animals ([19]; 0:30:00): 40.7 and 326 and 282
plasma level of nelfinavir, individual animals ([19]; 1:00:00): 20.2 and 6320 and 206
plasma level of nelfinavir, individual animals ([19]; 3:00:00): 108 and 244 and 71.4
plasma level of nelfinavir, individual animals ([19]; 7:00:00): 156 and 276 and 245
Cl (mL/min/kg) ([19]; 10%DMSO/90% Corn Oil): 2,542.16 mL/min/kg
Vd ([19]; 10%DMSO/90% Corn Oil): 706.35 L/kg
plasma level of nelfinavir, individual animals ([19]; 24:00:00): BQL and 41 and 2.73
plasma level of nelfinavir, individual animals ([19]; 32:00:00): BQL and 16.9 and 0.47
plasma level of nelfinavir, individual animals ([19]; 48:00:00): BQL (2×) and 1.81
plasma exposure versus HeLa-ACE2 SARS-CoV-2 EC50 ([19]; hamster): failed to reach exposures above HeLa-ACE2 SARS-CoV-2 EC50
AUC(0-t) ([19]; male, Syrian, hamster, plasma, 10%DMSO/90% Corn Oil, read-out: AUC0-24): 3.76 µg·h/mL
AUC(0-t) ([19]; male, Syrian, hamster, plasma, 10%DMSO/90% Corn Oil, read-out: AUCLAST): 3.87 µg·h/mL
AUC(0-inf) [19, 32]: 5.48 µg·h/mL
Cmax [19, 32]: 2.25 µg/mL
MRT [19, 32]: 5.82 h
Tmax [19, 32]: 2.83 h
half-life [19, 32]: 4.02 h
Emax (HeLa-ACE2 cells [7]; Homo sapiens, HeLa-ACE2, 10 h, read-out: HeLa-ACE2 TOA cell count Sinf Average): 100%
EC50 (HeLa-ACE2 cells [7]; Homo sapiens, HeLa-ACE2, read-out: HeLa-ACE2 TOA cell count EC50 GeoMean): > 9.6 µM
EC50 (HeLa-ACE2 cells [11]): > 9.6 µM
Emax (Calu-3 cells [12]; Calu-3, 48 h, read-out: Calu-3 cell count Sinf Average): 79%
EC50 (Calu-3 cells [12]): 0.875 µM
Approx. t1/2 ([20]; human): 7 h
Cmax ([20]; read-out: Approx. Cmax, human oral): 17 µM
CC50 at 72 h [21]: > 39.8 µM
HepG2 72-hour cytotoxicity Sinf Average (HepG2 [22]): -100%
CC50 at 72 h [23]: 15.7 µM
HEK293T 72-hour cytotoxicty Sinf Average (HEK293T [24]): -100%
CC50 at 48 h [25]: > 9.4 µM
Calu-3 uninfected cytotoxicity Sinf Average (Calu-3 cells [26]): -93%

CC[C@H]1OC(=O)[C@H](C)[C@@H](O[C@H]2C[C@@](C)(OC)[C@@H](O)[C@H](C)O2)[C@H](C)[C@@H](O[C@@H]2O[C@H](C)C[C@H](N(C)C)[C@H]2O)[C@](C)(O)C[C@@H](C)CN(C)[C@H](C)[C@@H](O)[C@]1(C)O [Azithromycin]
Emax (SARS-CoV-2 [1]): 100%
EC50 (SARS-CoV-2 [1]; [29]): 0.65 µM
HeLa-ACE2 SI (SARS-CoV-2 [1]; selectivity index, uninfected HeLa-ACE2 CC50 / SARS-CoV-2 EC50): > 61.26
CC50 at 24 h [2, 30]: > 39.8 µM
EC50 (SARS-CoV-2 [4]; Severe acute respiratory syndrome coronavirus 2, Calu-3, read-out: Calu-3 CoV-2 EC50 GeoMean): > 9.85 µM
TOA:HeLa-ACE2 EC50 Ratio (SARS-CoV-2 [5]): 14.747
EC50 (SARS-CoV-2 [5]; Severe acute respiratory syndrome coronavirus 2, HeLa-ACE2, detail column): > 9.59 µM
EC50 (HeLa-ACE2 cells [27]): > 9.59 µM
EC50 (HeLa-ACE2 cells [11]): > 9.59 µM
EC50 (Calu-3 cells [12]): > 9.85 µM
CC50 (in vitro [14]): > 39.8 µM
HepG2 72-hour cytotoxicity Sinf Average (HepG2 [22]): -100%
CC50 at 72 h [23]: > 39.8 µM
